Laboratory results published in patent publication US20230027026A1, “FUSED PYRIMIDINE COMPOUNDS, COMPOSITIONS AND MEDICINAL APPLICATIONS THEREOF” (JUBILANT BIOSYS LIMITED, priority 2019, published 2023).

Columns and labels:
Type in all cases: cell-based
[1] = target: EGFR (A767_dupASV) expressing Ba/F3 stable cell line (Homo sapiens, UniProt P00533, DUP767-769, cells depend on it); assay: Cellular proliferation (Alamar Blue) assay, EGFR A767_dupASV Ba/F3; details: EGFR A767_dupASV Ba/F3, 72 hr, read-out: A767 IC50
EGFR (A767_dupASV) expressing Ba/F3 stable cell line, sequence (P00533 with tags, fused parts or gaps DUP767-769): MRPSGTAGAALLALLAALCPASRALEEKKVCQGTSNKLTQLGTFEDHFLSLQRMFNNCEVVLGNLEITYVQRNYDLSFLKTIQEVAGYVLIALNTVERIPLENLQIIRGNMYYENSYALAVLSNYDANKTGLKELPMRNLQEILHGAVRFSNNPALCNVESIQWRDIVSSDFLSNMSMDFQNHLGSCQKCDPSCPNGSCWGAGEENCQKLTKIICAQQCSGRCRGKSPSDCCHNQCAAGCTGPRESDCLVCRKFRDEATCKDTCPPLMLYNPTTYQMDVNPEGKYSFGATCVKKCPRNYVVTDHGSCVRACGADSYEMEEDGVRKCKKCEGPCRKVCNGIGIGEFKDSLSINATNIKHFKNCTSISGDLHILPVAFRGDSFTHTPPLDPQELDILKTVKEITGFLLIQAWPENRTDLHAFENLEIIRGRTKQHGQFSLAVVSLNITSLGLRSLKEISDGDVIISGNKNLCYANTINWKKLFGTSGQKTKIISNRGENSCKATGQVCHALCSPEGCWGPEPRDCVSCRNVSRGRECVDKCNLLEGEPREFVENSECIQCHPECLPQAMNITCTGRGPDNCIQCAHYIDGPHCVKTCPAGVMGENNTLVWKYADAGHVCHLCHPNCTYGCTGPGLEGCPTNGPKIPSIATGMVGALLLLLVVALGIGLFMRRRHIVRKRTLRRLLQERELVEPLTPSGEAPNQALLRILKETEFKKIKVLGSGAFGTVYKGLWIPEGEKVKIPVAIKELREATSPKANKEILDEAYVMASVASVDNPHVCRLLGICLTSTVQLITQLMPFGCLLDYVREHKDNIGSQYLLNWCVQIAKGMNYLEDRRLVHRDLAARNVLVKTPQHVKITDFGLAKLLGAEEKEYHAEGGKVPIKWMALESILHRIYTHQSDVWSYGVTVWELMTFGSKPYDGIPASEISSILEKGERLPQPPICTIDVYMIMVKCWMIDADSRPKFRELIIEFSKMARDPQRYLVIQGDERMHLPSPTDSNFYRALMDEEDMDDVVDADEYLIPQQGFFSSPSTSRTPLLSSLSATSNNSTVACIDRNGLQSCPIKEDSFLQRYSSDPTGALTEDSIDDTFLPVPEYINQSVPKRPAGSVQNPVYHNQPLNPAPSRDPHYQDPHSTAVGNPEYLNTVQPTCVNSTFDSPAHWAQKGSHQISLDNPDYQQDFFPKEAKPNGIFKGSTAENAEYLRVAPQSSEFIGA
Summary of the method: (§1)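 Following a 16–18 h pre-incubation, cells received compound or DMSO for 72 h at 37 °C across a 10–0.0005 μM final range. Proliferation was then scored by Alamar Blue fluorescence (540 nm excitation, 590 nm emission) after 3 h.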

[2] = target: EGFR(D770_N771insSVD) expressing Ba/F3 stable cell line (Homo sapiens, UniProt P00533, DUP768-770, cells depend on it); assay: Cellular proliferation (Alamar Blue) assay, EGFR D770_N771insSVD Ba/F3; details: EGFR D770_N771insSVD Ba/F3, 72 hr, read-out: D770 IC50
EGFR(D770_N771insSVD) expressing Ba/F3 stable cell line, sequence (P00533 with tags, fused parts or gaps DUP768-770): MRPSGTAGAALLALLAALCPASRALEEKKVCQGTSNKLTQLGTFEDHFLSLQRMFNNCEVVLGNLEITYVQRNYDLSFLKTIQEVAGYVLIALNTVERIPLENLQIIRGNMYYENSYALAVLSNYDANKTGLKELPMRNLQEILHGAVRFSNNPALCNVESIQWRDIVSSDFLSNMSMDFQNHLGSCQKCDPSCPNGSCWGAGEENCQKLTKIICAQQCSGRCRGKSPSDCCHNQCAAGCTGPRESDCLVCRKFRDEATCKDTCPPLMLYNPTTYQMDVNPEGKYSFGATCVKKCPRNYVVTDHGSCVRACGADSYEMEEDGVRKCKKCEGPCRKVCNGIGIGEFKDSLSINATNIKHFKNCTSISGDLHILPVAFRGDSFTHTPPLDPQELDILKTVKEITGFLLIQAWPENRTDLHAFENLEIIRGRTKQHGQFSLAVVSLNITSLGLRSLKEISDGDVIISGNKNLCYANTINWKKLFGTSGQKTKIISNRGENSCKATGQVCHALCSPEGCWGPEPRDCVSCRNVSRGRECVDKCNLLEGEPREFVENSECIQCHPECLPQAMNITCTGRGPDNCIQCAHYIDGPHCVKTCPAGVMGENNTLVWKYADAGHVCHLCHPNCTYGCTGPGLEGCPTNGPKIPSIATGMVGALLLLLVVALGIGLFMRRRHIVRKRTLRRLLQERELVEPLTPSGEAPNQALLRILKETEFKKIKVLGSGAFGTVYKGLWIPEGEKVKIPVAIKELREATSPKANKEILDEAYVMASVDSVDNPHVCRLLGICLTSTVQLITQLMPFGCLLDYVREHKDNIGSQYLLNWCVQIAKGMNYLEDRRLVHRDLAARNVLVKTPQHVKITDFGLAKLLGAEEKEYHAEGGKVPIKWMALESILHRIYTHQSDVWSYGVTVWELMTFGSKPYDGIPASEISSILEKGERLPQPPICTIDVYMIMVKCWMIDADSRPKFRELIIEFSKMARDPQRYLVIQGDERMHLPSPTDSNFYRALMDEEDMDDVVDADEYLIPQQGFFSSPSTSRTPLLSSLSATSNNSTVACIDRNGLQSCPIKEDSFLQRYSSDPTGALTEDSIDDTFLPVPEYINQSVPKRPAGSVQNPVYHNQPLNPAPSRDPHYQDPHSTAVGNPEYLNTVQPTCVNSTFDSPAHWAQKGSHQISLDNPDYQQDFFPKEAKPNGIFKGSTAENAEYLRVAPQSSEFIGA
Summary of the method: as §1

A431 cells = assay: Cellular proliferation (Alamar Blue) assay, A431; details: Homo sapiens, A-431; A431 cells, 72 hr, Alamar Blue; read-out: A431 IC50
Summary of the method: as §1

[3] = target: HER2 (A775_G776insYVMA) expressing Ba/F3 stable cell line (Homo sapiens, UniProt P04626, DUP772-775, cells depend on it); assay: Cellular proliferation (Alamar Blue) assay, HER2 YVMA Ba/F3; details: HER2 A775_G776insYVMA Ba/F3, 72 hr, read-out: YVMA IC50
HER2 (A775_G776insYVMA) expressing Ba/F3 stable cell line, sequence (P04626 with tags, fused parts or gaps DUP772-775): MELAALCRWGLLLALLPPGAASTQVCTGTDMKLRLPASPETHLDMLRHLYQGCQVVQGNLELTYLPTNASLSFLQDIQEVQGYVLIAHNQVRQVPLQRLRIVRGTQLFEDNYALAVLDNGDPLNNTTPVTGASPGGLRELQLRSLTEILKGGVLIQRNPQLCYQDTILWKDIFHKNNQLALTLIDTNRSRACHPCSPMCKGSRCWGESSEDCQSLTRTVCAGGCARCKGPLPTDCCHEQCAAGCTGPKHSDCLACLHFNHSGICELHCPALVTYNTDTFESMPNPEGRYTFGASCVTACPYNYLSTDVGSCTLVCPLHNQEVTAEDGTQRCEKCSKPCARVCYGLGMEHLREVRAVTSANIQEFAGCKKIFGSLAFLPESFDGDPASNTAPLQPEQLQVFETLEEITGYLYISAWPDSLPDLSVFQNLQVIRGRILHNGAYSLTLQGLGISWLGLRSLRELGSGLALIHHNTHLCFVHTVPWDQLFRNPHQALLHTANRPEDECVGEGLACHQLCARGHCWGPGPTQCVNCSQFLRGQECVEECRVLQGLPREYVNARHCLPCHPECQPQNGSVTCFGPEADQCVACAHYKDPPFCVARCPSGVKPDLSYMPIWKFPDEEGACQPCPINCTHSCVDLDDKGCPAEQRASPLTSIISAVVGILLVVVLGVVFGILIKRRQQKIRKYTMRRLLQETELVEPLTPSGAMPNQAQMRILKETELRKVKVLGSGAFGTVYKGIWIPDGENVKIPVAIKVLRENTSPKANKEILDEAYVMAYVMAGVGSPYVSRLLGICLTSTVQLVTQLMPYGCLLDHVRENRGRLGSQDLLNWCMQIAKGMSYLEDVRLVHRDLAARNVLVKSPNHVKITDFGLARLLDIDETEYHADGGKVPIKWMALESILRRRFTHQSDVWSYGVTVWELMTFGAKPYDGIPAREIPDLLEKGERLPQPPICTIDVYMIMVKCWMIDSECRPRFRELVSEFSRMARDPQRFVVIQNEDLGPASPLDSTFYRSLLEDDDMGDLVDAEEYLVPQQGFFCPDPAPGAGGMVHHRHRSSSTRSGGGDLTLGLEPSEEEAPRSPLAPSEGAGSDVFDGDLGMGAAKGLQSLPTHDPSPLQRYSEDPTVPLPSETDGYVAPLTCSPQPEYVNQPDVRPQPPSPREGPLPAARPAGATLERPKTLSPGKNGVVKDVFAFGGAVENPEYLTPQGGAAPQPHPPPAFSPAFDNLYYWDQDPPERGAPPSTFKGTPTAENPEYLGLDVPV
Description: Example 3: Cellular Proliferation (Alamar Blue) Assays
• 1. EGFR(D770_N771insSVD) expressing Ba/F3 stable cell line • 2. EGFR (A767_dupASV) expressing Ba/F3 stable cell line • 3. A431 cells • 4. BTER2 (A775_G776insYVMA) expressing Ba/F3 stable cell line • 5. BTER2 (WT) expressing Ba/F3 stable cell line • 6. BT-474 cells
• 1. Seed cells at 5000 for A431 and 15,000 cells for Ba/F3 in 100 μL/well in complete media (for A431: DMEM with 10% FBS and for Ba/F3 cells: RPMI with 10% FBS) in 96-well tissue culture plate. Leave outer wells without cells for background measurements. Incubate at 37 degree Celsius in 5% CO2 humidified incubator for 16-18 hours. • 2. Add 0.025 ml of 5× concentration compound dilution or DMSO control. Final compound concentration range is 10-0.0005 μM prepared in 3-fold serial dilutions. Incubate for 72 hr at 37 degree Celsius in […] humidified incubator. • 3. Add 0.0125 mL Alamar Blue™ reagent to each well with multi-channel pipette and tap gently on each side of the plate to mix. Incubate for 3 hours at 37 degree Celsius in […] humidified incubator. • 4. Read plates on fluorescence reader (Tecan Spark Control, Device: Spark, Serial #: 1801006040) at 540 nm excitation, 590 nm emission wavelength. • 5. Data analysis was performed using XLfit 5.5.0.5.

Row | Compound | GI50 [1] | GI50 [2] | IC50 (A431 cells) | GI50 [3]
1 | CN(C)C/C=C/C(=O)Nc1cccc(N2C(=O)N(c3ccccc3)Cc3cnc(Nc4cnn(C5CCC(O)CC5)c4)nc32)c1 (stereo not drawn) [Compound 107, (E)-4-(dimethylamino)-N-(3-(7-((1-(4-hydroxycyclohexyl)-1H-pyrazol-4-yl)amino)-2-oxo-3-phenyl-3,4-dihydropyrimido[4,5-d]pyrimidin-1(2H)-yl)phenyl)but-2-enamide] | ≥ 10000 nM | ≥ 10000 nM | ≥ 10000 nM | ≥ 10000 nM
2 | C=CC(=O)Nc1cccc(N2C(=O)N(c3ccccc3)Cc3cnc(Nc4cnn(C5CCC(O)CC5)c4)nc32)c1 (stereo not drawn) [Compound 108, N-(3-(7-((1-(4-hydroxycyclohexyl)-1H-pyrazol-4-yl)amino)-2-oxo-3-phenyl-3,4-dihydropyrimido[4,5-d]pyrimidin-1(2H)-yl)phenyl)acrylamide] | 912 nM | 634 nM | ≥ 10000 nM | 2020 nM
3 | Cn1cc(Nc2ncc3c(n2)N(c2cccc(NC(=O)/C=C/CN4CCCCC4)c2)C(=O)N(c2ccccc2)C3)c(Cl)n1 [Compound 111, (E)-N-(3-(7-((3-chloro-1-methyl-1H-pyrazol-4-yl)amino)-2-oxo-3-phenyl-3,4-dihydropyrimido[4,5-d]pyrimidin-1(2H)-yl)phenyl)-4-(piperidin-1-yl)but-2-enamide] | 39 nM | 128 nM | ≥ 10000 nM | 64 nM
4 | C=CC(=O)Nc1cccc(N2C(=O)N(c3ccccc3)Cc3cnc(Nc4ccc(N5CCC(N(C)C)CC5)nc4)nc32)c1 [Compound 112, N-(3-(7-((6-(4-(dimethylamino)piperidin-1-yl)pyridin-3-yl)amino)-2-oxo-3-phenyl-3,4-dihydropyrimido[4,5-d]pyrimidin-1(2H)-yl)phenyl)acrylamide] | 229 nM | 295 nM | ≥ 10000 nM | 354 nM
5 | C=CC(=O)Nc1cccc(N2C(=O)N(c3ccccc3)Cc3cnc(Nc4cn(C)nc4F)nc32)c1 [Compound 113, N-(3-(7-((3-fluoro-1-methyl-1H-pyrazol-4-yl)amino)-2-oxo-3-phenyl-3,4-dihydropyrimido[4,5-d]pyrimidin-1(2H)-yl)phenyl)acrylamide] | 4 nM | 17 nM | ≥ 10000 nM | 68 nM
6 | Cn1cc(Nc2ncc3c(n2)N(c2cccc(NC(=O)/C=C/CF)c2)C(=O)N(c2ccccc2)C3)c(Cl)n1 [Compound 117, (E)-N-(3-(7-((3-chloro-1-methyl-1H-pyrazol-4-yl)amino)-2-oxo-3-phenyl-3,4-dihydropyrimido[4,5-d]pyrimidin-1(2H)-yl)phenyl)-4-fluorobut-2-enamide] | 35 nM | 50 nM | ≥ 10000 nM | 75 nM
7 | C/C=C/C(=O)Nc1cccc(N2C(=O)N(c3ccccc3)Cc3cnc(Nc4cn(C)nc4Cl)nc32)c1 [Compound 120, (E)-N-(3-(7-((3-chloro-1-methyl-1H-pyrazol-4-yl)amino)-2-oxo-3-phenyl-3,4-dihydropyrimido[4,5-d]pyrimidin-1(2H)-yl)phenyl)but-2-enamide] | 107 nM | 183 nM | ≥ 10000 nM | 158 nM
8 | C=C(C)C(=O)Nc1cccc(N2C(=O)N(c3ccccc3)Cc3cnc(Nc4cn(C)nc4Cl)nc32)c1 [Compound 121, N-(3-(7-((3-chloro-1-methyl-1H-pyrazol-4-yl)amino)-2-oxo-3-phenyl-3,4-dihydropyrimido[4,5-d]pyrimidin-1(2H)-yl)phenyl)methacrylamide] | 8600 nM | ≥ 10000 nM | ≥ 10000 nM | 883 nM

Further compounds by falling GI50 [1], results first:

Row | GI50 [1] | GI50 [2] | IC50 (A431 cells) | GI50 [3] | Compound
9 | 2320 nM | 6030 nM | ≥ 10000 nM | 3300 nM | CN(C)C/C=C/C(=O)Nc1cccc(N2C(=O)N(c3ccccc3)Cc3cnc(Nc4ccc(N5CCN(C)CC5)nc4)nc32)c1 [Compound 109, (E)-4-(dimethylamino)-N-(3-(7-((6-(4-methylpiperazin-1-yl)pyridin-3-yl)amino)-2-oxo-3-phenyl-3,4-dihydropyrimido[4,5-d]pyrimidin-1(2H)-yl)phenyl)but-2-enamide]
10 | 926 nM | 1110 nM | 8930 nM | 995 nM | CN(C)C/C=C/C(=O)Nc1cccc(N2C(=O)N(c3ccccc3)Cc3cnc(Nc4cn(C5CCN(C)CC5)nc4Cl)nc32)c1 [Compound 106, (E)-N-(3-(7-((3-chloro-1-(1-methylpiperidin-4-yl)-1H-pyrazol-4-yl)amino)-2-oxo-3-phenyl-3,4-dihydropyrimido[4,5-d]pyrimidin-1(2H)-yl)phenyl)-4-(dimethylamino)but-2-enamide]
11 | 164 nM | 1090 nM | ≥ 10000 nM | 1150 nM | CN(C)C/C=C/C(=O)Nc1cccc(N2C(=O)N(c3ccccc3)Cc3cnc(Nc4cccnc4F)nc32)c1 [Compound 114, (E)-4-(dimethylamino)-N-(3-(7-((2-fluoropyridin-3-yl)amino)-2-oxo-3-phenyl-3,4-dihydropyrimido[4,5-d]pyrimidin-1(2H)-yl)phenyl)but-2-enamide]
12 | 101 nM | 284 nM | ≥ 10000 nM | 132 nM | Cn1cc(Nc2ncc3c(n2)N(c2cccc(NC(=O)/C=C/CN4CCOCC4)c2)C(=O)N(c2ccccc2)C3)c(Cl)n1 [Compound 122, (E)-N-(3-(7-((3-chloro-1-methyl-1H-pyrazol-4-yl)amino)-2-oxo-3-phenyl-3,4-dihydropyrimido[4,5-d]pyrimidin-1(2H)-yl)phenyl)-4-morpholinobut-2-enamide]
13 | 98 nM | 140 nM | ≥ 10000 nM | 144 nM | COC/C=C/C(=O)Nc1cccc(N2C(=O)N(c3ccccc3)Cc3cnc(Nc4cn(C)nc4Cl)nc32)c1 [Compound 119, (E)-N-(3-(7-((3-chloro-1-methyl-1H-pyrazol-4-yl)amino)-2-oxo-3-phenyl-3,4-dihydropyrimido[4,5-d]pyrimidin-1(2H)-yl)phenyl)-4-methoxybut-2-enamide]
14 | 43 nM | 102 nM | 3640 nM | 103 nM | C=CC(=O)Nc1cccc(N2C(=O)N(c3ccccc3)Cc3cnc(Nc4ccc(N5CCN(C)CC5)nc4)nc32)c1 [Compound 110, N-(3-(7-((6-(4-methylpiperazin-1-yl)pyridin-3-yl)amino)-2-oxo-3-phenyl-3,4-dihydropyrimido[4,5-d]pyrimidin-1(2H)-yl)phenyl)acrylamide]
15 | 32 nM | 110 nM | ≥ 10000 nM | 103 nM | C=CC(=O)Nc1cccc(N2C(=O)N(c3ccccc3)Cc3cnc(Nc4cccc5c4CCN5C4CCN(C)CC4)nc32)c1 [Compound 118, N-(3-(7-((1-(1-methylpiperidin-4-yl)indolin-4-yl)amino)-2-oxo-3-phenyl-3,4-dihydropyrimido[4,5-d]pyrimidin-1(2H)-yl)phenyl)acrylamide]
16 | 22 nM | 40 nM | > 10000 nM | 101 nM | Cn1cc(Nc2ncc3c(n2)N(c2cccc(NC(=O)/C=C/CF)c2)C(=O)N(Cc2ccccc2)C3)c(F)n1 [Compound 88, (E)-N-(3-(3-benzyl-7-((3-fluoro-1-methyl-1H-pyrazol-4-yl)amino)-2-oxo-3,4-dihydropyrimido[4,5-d]pyrimidin-1(2H)-yl)phenyl)-4-fluorobut-2-enamide]
17 | 8 nM | 28 nM | ≥ 10000 nM | 188 nM | C=CC(=O)Nc1cccc(N2C(=O)N(c3ccccc3)Cc3cnc(Nc4cccnc4F)nc32)c1 [Compound 115, N-(3-(7-((2-fluoropyridin-3-yl)amino)-2-oxo-3-phenyl-3,4-dihydropyrimido[4,5-d]pyrimidin-1(2H)-yl)phenyl)acrylamide]
18 | 1 nM | 7 nM | ≥ 10000 nM | 24 nM | C=CC(=O)Nc1cccc(N2C(=O)N(c3ccccc3)Cc3cnc(Nc4cn(C)nc4Cl)nc32)c1 [Compound 116, N-(3-(7-((3-chloro-1-methyl-1H-pyrazol-4-yl)amino)-2-oxo-3-phenyl-3,4-dihydropyrimido[4,5-d]pyrimidin-1(2H)-yl)phenyl)acrylamide]
